{"source": "patent US10953071B2", "about": "“Compositions and methods for treatment of intracellular damage and bacterial infection” (priority 2011, dated 2021)", "key": {"[1]": {"test_system": "bone marrow derived phagocytes exposed to Mtb", "assay_type": "cell-based, mouse"}, "[2]": {"test_system": "THP-1 cells"}, "[3]": {"test_system": "stimulated human T lymphocytes", "assay": "Cytokine production by anti-CD3/CD28 stimulated human mononuclear cells with Kv1.3 and IDE inhibitors", "assay_type": "cell-based", "procedure": "Peripheral blood was obtained from two healthy donors. Mononuclear cells were purified by Ficol-Hypaque centrifugation. […] The culture supernatants were collected 24 hours post-treatment and were assayed for eleven Th1/Th2 cytokines using a multiplex system (Bender, Cat. No. BMS810FF): IL-1beta, IL-2, IL-4, IL-5, IL-6, IL-8, IL-10, IL-12p70, TNF-alpha, TNF-beta, IFN-gamma."}, "[4]": {"test_system": "PBMCs", "assay": "Cytokine secretion of naïve and stimulated PBMCs", "assay_type": "cell-based, human", "details": "for TH2 and TH1 cytokines secretion in activated PBMCs: anti-CD3 or anti-CD3/anti-CD28 stimulation", "procedure": "FIG. 3A and FIG. 3B illustrate that mitogen stimulation enhances FITC-PIF binding to T and B cell populations. PBMC were cultured with PHA for 24 h. Binding of FITC-PIF to different PBMC populations was determined by two color flow cytometry. Binding was low (<10% in unstimulated cells a, upper panel from left to right) CD4+, CD8+, NK, (CD56+) and B (CD19+) cells. However, it led to a ˜30-fold increase in binding to b (lower panel from left to right), CD4+, CD8+ and B (CD19+) cells. Binding was unchanged for NK cells, even after a 72 hour incubation period. FIG. 3C, FIG. 3D, FIG. 3E, and FIG. 3F illustrate that sPIF promotes TH2/TH1 cytokine bias in stimulated PBMCs. […] FIG. 3B illustrates sPIF (50 nM); FIG. 3C illustrates PIFscr (50 nM); FIG. 3D illustrates sPIF (50 nM)+anti-CD3 mAb; FIG. 3E illustrates PIFscr+anti-CD3 mAb. sPIF affected variably stimulated PBMCs individual cytokines secretion. In contrast, some cytokine secretion in naïve PBMCs decreased (not shown). […] Cytokine secretion determined by Luminex 10-plex. […] PBMCs were cultured in the presence of anti-CD3/anti-CD28-Mab for 24-48 hours. […] The effect on PBMCs at 48 hours was less pronounced (data not shown). At the end of experiment mRNA was extracted and global gene expression was analyzed by using an Affymetrix chip."}, "[5]": {"test_system": "C57bl6 mice", "details": "0.3 nmol/g i.p.", "procedure": "Peritonitis was induced by injecting 3 ml 4% thioglycolate i.p. and after 20 hours, the mice were anaesthetized and the peritoneal cavity was flushed with 5 ml sterile PBS. Subsequently, monocytes/macrophages were quantified with F4/80 and CD11b in flow cytometry.\nPeritonitis was induced by injecting 3 ml 4% thioglycolate i.p. and after 20 hours, the mice were anaesthetized and the peritoneal cavity was flushed with 5 ml sterile PBS. Subsequently, monocytes and macrophages were quantified with F4/80 and CD11b in flow cytometry."}, "[6]": {"assay": "Surface Plasmon Resonance, LPS binding to PIF-labeled sensor surface", "design": "species or system E. coli", "details": "LPS 5, 25 and 100 μM, immobilized peptide, preliminary results", "method": "Surface Plasmon Resonance spectroscopy (SPR) was used to evaluate LPS and LPS receptors binding (TLR4-MD2 and CD14) to the PIF-labeled sensor surface. Two chemotypes of LPS (From E. coli O55:B5 and E. coli EH100) at 3 concentrations (5, 25 and 100 μM) were tested."}, "[7]": {"test_system": "Nos2", "details": "mouse, in vivo"}, "[8]": {"test_system": "B7-H1", "details": "200 nM PIF, 10 days, IFN γ at day 7", "procedure": "(§1) Mouse splenocytes were used for mixed Lymphocytes Reaction (MLR). Balb/c cells were cultured in the presence of irradiated C57/Bl cells for 4 days. […] Cell proliferation was tested by H3 Tymidine uptake assay. […] One representative experiment is shown out of four performed. […] Anti-CD3 antibodies were added to the medium for T cell activation. Cell proliferation was tested by H3 Thymidine uptake. […] At day 7, 100 ng/ml IFN γ was added. After 10 days cells were analyzed by FACS analysis using anti-B7-H1 antibodies. FIG. 2D illustrates murine macrophages were cultured with GM-CSF for 10 days. IFN-γ was added to the culture at day 7 for cell activation. […] This is relevant since B7-H1 is one of the newly defined inhibitory B7 family molecules. It is known that IFN gamma potently stimulates B7-H1 expression on APC. […] THP-1 cells were incubated for 48 hours, then were stimulated with […] and collected at 0, 1, 8, 12 and 24 hour time points. […] The 8 hour time point was selected to allow time for cell stimulation. The gene regulation comes quickly and the selected time point allows enough time for stimulation and not over/under. […] In the last 24 hours of the experiment, LPS was added to the culture for cell activation. Greiss reagent test was performed to detect NO secretion to the supernatant."}, "[9]": {"test_system": "T cells", "details": "monocytes 10 days with 200 nM PIF, co-culture 4 days, anti-CD3", "procedure": "as §1"}, "[10]": {"test_system": "THP-1 cells", "procedure": "as §1", "remark": "listed apart in the source"}, "[11]": {"test_system": "Balb/c splenocytes with irradiated C57/Bl cells", "details": "4 days; 150 nM and 200 nM PIF significant", "procedure": "as §1"}, "[12]": {"test_system": "ApoE−/− mice", "assay": "Atherosclerosis model, ApoE−/− mice fed high fat Western diet", "assay_type": "in vivo, mouse", "procedure": "Aortic root and arch sections were stained with HE. The mean atherosclerotic area (μm2)±SEM was quantified.\nORO histology was employed to identify lipids in the mouse atherosclerotic plaque. Lipids were quantified by red signal intensity percentage area of plaque±SEM. […] All animals still had very high cholesterol levels and to obtain a reading, the plasma was diluted to 1:10. After analysis, no statistical difference was seen between any group using one way ANOVA paired with Tukey's Multiple Comparison Test. […]\nTreatments were administered via 150 μL i.p. injection every 3rd day, for a total of 7 weeks."}, "[13]": {"test_system": "Ca++ mobilization", "procedure": "FITC-sPIF binding to PBMCs subsets was determined using flow cytometry. sPIF's effect on Ca++ mobilization was tested by Flex station."}, "[14]": {"test_system": "human PBMCs"}, "[15]": {"test_system": "RAW (Macrophage cell line)", "details": "PIF 200 nM, 2 or 5 day incubation, no LPS", "procedure": "as §1\nIn the last 24 hours of the experiment, LPS was added to the culture for cell activation. […]"}}, "note": "Entries after “also recorded” stand apart in the source; their conditions may differ. Read-outs that look alike come from different tables or passages of the source.", "data": [{"substance": "IFNγ: phagocyte-activating cytokine", "values": [{"measurement": "IL-1a, IL-1b, TNFa, MIP-1alpha and KC response to Mtb, PIF and anti-Kv1.3, effect of IFN", "setting": "[1]", "result": "lost"}, {"measurement": "MCP-1, IL-6 and IL-5 response to Mtb and PIF, effect of IFN", "setting": "[1]", "result": "stopped"}]}, {"substance": "MVRIKPGSANKPSDD [PIF]", "values": [{"measurement": "MCP-1 induced transmigration of THP-1 cells", "setting": "[2]; PIF 1 μM", "result": "significantly reduced"}, {"measurement": "MCP-1 induced transmigration of THP-1 cells", "setting": "[2]; PIF 10 μM", "result": "significantly reduced"}, {"measurement": "Th1/Th2 cytokine analytes, PIF alone", "setting": "[3]; PIF 1, 10 and 50 nM, no stimulation, 24 hours", "result": "no effect"}, {"measurement": "binding to intracellular insulin degrading enzyme (IDE)", "setting": "[3]; concluded from cell based assay using specific IDE inhibitor", "result": "bind"}, {"measurement": "TH2 and TH1 cytokines secretion in activated PBMCs", "setting": "[4]", "result": "increased"}, {"measurement": "TH2 and TH1 cytokines secretion in activated PBMCs", "setting": "[4]; listed as sPIF", "result": "promotes"}, {"measurement": "TH1 (TNF-α, IL2) cytokines in naïve PBMCs", "setting": "[4]; naïve PBMCs", "result": "reduces"}, {"measurement": "cytokine secretion, PIF alone", "setting": "[4]; without TCR stimulation, 24-48 hours", "result": "no significant promoting effect"}, {"measurement": "MCP-1 induced monocyte migration in mouse peritonitis model", "setting": "[5]", "result": "inhibits"}, {"measurement": "binding to LPS chemotypes (SPR)", "setting": "[6]", "result": "no apparent LPS binding"}, {"measurement": "elevation of Nos2 expression in liver of semi-allogenic BMT mice", "setting": "[7]", "result": "completely prevented"}, {"measurement": "B7-H1 expression", "setting": "[8]", "result": "up-regulates"}, {"measurement": "B7-H1 expression", "setting": "[8]; listed as sPIF", "result": "significantly increased"}, {"measurement": "T cell proliferation with PIF-treated monocytes", "setting": "[9]", "result": "reduced proliferation but did not block it"}, {"measurement": "VCAM-1, IL-12b and IFNg in THP-1 cells", "setting": "[10]", "result": "reduced"}, {"measurement": "allogenic lymphocyte proliferation in MLR", "setting": "[11]", "result": "reduce cells proliferation in a dose dependent manner"}, {"measurement": "reduction of plaque area in the aortic root compared to PBS control", "setting": "[12]; PIF 0.1 mg/kg/day, i.p.", "result": 30, "unit": "%"}, {"measurement": "plaque area of the aortic arch compared to both doses of scrPIF", "setting": "[12]; PIF 1 mg/kg/day", "result": "reduction"}, {"measurement": "reduction of plaque area in the aortic root compared to PBS control", "setting": "[12]; PIF 1 mg/kg/day, i.p.", "result": 46, "unit": "%"}, {"measurement": "reduction of plaque area of the aortic arch compared to PBS control", "setting": "[12]; PIF 1 mg/kg/day, i.p.", "result": 43, "unit": "%"}, {"measurement": "plaque area in the aortic root compared to both doses of scrPIF", "setting": "[12]; higher dose of PIF (1 mg/kg/day)", "result": "statistically significantly reduced"}, {"measurement": "CD68 in the aortic root and arch", "setting": "[12]; mouse, in vivo", "result": "reduces"}, {"measurement": "MCP-1 in the aortic root and arch", "setting": "[12]; mouse, in vivo", "result": "reduces"}, {"measurement": "VCAM-1 in the aortic root and arch", "setting": "[12]; mouse, in vivo", "result": "reduces"}, {"measurement": "atherosclerosis formation (protective effect)", "setting": "[12]; mouse, in vivo", "result": "reduces"}, {"measurement": "lipids (Oil Red O staining) in the aortic root and arch", "setting": "[12]; mouse, in vivo", "result": "reduces"}, {"measurement": "action through Ca++ mobilization", "setting": "[13]", "result": "does not act through Ca++ mobilization"}, {"measurement": "anti-CD3-Mab-stimulated proliferation and mixed lymphocyte reaction", "setting": "[14]", "result": "blocked"}, {"measurement": "baseline NO", "setting": "[15]", "result": "did not affect"}, {"measurement": "MCP-1, IL-6 and IL-5 induction by Mtb, effect of PIF", "setting": "[1]", "result": "further induced; also recorded: augmented"}, {"measurement": "MCP-1 secretion by isolated macrophages", "setting": "[1]", "result": "increased"}, {"measurement": "MIG and IP10 chemokines, effect of PIF", "setting": "[1]", "result": "modestly augmented"}, {"measurement": "TNF, IL-1a, IL-1b, IL-6, MCP-1, MIP1a and KC response of BMDCs to Mtb", "setting": "[1]", "result": "increased"}, {"measurement": "TNF, IL-1α, IL-1β, MIP1α and KC induction by Mtb, effect of PIF", "setting": "[1]", "result": "augmented"}, {"measurement": "VEGF and FGFb (growth factors) in BMDCs exposed to Mtb", "setting": "[1]", "result": "augmented"}, {"measurement": "VEGF and FGFβ induction by Mtb, effect of PIF", "setting": "[1]", "result": "promoted; also recorded: augmented"}]}]}
